One data set has as its target TIE-2 (Homo sapiens, UniProt Q02763). The data set is described as follows: Tie-2 kinase flashplate assay (phosphorylation of poly(Glu, Tyr) with 33P-ATP). Particulars: read-out: Inhibition of TIE-2 IC50. It is filed as biochemical. On the procedure:
The TIE-2 tests can be carried out, for example, analogously to the methods indicated in WO 02/44156.
The assay determines the inhibiting activity of the substances to be tested in the phosphorylation of the substrate poly(Glu, Tyr) by Tie-2 kinase in the presence of radioactive ^33P-ATP. The phosphorylated substrate binds to the surface of a “flashplate” microtitre plate during the incubation time. After removal of the reaction mixture, the microtitre plate is washed a number of times and the radioactivity on its surface is subsequently measured. An inhibiting effect of the substances to be measured results in lower radioactivity compared with an undisturbed enzymatic reaction.

Another data set relates to RAF. The data set is described as follows: Inhibition of RAF. It is filed as biochemical.

From patent publication US20080045529A1, “Use Of Thienopyrimidines” (MERCK PATENT GMBH, priority 2003, published 2008) come the findings set out here.

As a reminder, the IC50 is the concentration needed to halve the response being measured. As usually defined, the melting point is the temperature, or range, at which the solid turns liquid.

Sequence of TIE-2 (Q02763 23-1124, species assumed): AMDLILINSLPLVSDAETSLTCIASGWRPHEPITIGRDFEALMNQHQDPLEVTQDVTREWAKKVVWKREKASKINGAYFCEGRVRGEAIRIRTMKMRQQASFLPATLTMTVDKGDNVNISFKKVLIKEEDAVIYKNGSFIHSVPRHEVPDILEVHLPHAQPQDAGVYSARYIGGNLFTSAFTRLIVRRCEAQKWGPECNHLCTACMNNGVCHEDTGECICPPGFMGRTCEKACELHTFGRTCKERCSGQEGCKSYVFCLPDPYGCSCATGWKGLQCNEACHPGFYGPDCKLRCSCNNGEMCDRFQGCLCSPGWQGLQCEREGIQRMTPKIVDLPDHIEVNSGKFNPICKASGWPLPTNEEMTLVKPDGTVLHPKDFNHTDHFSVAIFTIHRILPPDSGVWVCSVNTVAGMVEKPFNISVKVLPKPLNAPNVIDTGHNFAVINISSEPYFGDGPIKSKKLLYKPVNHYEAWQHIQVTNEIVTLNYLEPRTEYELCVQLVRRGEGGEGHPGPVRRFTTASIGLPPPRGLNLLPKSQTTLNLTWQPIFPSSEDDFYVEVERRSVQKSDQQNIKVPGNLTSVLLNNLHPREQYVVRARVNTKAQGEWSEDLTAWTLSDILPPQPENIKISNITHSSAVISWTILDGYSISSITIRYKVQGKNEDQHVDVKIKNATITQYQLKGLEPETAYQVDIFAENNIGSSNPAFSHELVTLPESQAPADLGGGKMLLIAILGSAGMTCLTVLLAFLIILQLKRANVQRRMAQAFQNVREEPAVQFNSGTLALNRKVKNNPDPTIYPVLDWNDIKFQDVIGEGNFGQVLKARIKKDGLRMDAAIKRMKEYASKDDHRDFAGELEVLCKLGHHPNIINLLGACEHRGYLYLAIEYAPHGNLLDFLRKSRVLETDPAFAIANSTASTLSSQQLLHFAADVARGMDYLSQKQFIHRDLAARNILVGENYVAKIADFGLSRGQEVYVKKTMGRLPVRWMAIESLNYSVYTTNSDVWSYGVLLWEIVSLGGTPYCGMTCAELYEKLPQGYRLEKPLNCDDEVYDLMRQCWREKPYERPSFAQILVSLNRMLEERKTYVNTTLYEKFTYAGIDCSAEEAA

In the case of `c1cnn(-c2nc(NCc3ccc4c(c3)OCO4)c3c4c(sc3n2)CCCC4)c1`, the IC50 at TIE-2 was 0.15 µM.
Compound `c1cc2c(cc1CNc1nc(N3CCOCC3)nc3sc4c(c13)CCCC4)OCO2` registered an IC50 in the data set on RAF of 4.3 µM.
As to `Cc1sc2nc(N3CCOCC3)nc(NCc3ccc4c(c3)OCO4)c2c1C`, in the data set with RAF, half-maximal inhibition (IC50) required 5.3 µM.
For `Cc1cc2c(NCc3ccc4c(c3)OCO4)nc(-n3ccnc3)nc2s1` [Example 2, 2-(imidazol-1-yl)-6-methyl-4-(3,4-methylenedioxybenzylamino)thieno[2,3-d]pyrimidine], the melting point lay in the range of 248 to 250 °C.
